Measurements from patent publication US20240415819A1, “MACROCYCLIC COMPOUNDS AS PROTEASOME SUBUNIT BETA TYPE-5 INHIBITORS” (Lead Discovery Center GmbH, priority 2021, published 2024).
Read-outs that look alike come from different tables or passages of the source.

Columns and labels:
[1] = target: T1, β5 subunit of the human immunoproteasome (IPS) (Homo sapiens, UniProt P28062); assay: β5 inhibition assay, human immunoproteasome (Suc-LLVY-AMC); assay type: biochemical; conditions: IC50 class, Suc-LLVY-AMC substrate
T1 construct: purchased Boston Biochem E-370
Procedure, shortened: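 β5 activity is read as liberated AMC fluorescence (355/460 nm) after 4 h dark reaction at RT with 22.6 μM Suc-LLVY-AMC, stopped by 1 μM bortezomib. Beforehand, 1 nM human IPS and compound sat 10 min at RT in HEPES pH 7.5 buffer containing NaCl, 0.02% SDS and DTT.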

[2] = tested on: A549 (human lung carcinoma cell line); assay: Glo assay of A549 cells (Table 3; ProteasomeGlo plating scheme); assay type: cell-based; conditions: Homo sapiens
Procedure, shortened: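 Luminescent read-out of cellular chymotrypsin-like proteasome activity: cells exposed to compound 105 min at 37° C., 5% CO2, then given Suc-LLVY-Glo reagent, shaken 2-5 min and kept dark 10-15 min before reading. Values are IC50 [nM].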

[3] = A549 cells, read-out: PGLo A549

SMILES	IC50 [1]	IC50 [2, 3]	IC50 ([2]; A549, read-out: PGLo A549 [nM])
Cc1ccc2cc1CNC(=O)[C@H](CCc1ccccc1)NC(=O)[C@@H](N)CC(=O)N1CCCC(CCO2)C1 (stereo partly drawn) [Compound 8, (9S,12S)-12-amino-5^4-methyl-9-phenethyl-4-oxa-7,10-diaza-1(3,1)-piperidina-5(1,3)-benzenacyclotetradecaphane-8,11,14-trione]	< 100 nM	500 to 1000 nM	
Cc1ccc2cc1CNC(=O)[C@H](CCc1ccccc1)NC(=O)CCC(=O)N1CCCC(CCO2)C1 (stereo partly drawn) [Compound 13, (9S)-5^4-methyl-9-phenethyl-4-oxa-7,10-diaza-1(3,1)-piperidina-5(1,3)-benzenacyclotetradecaphane-8,11,14-trione]	< 100 nM	500 to 1000 nM	
Cc1ccc2cc1CNC(=O)[C@H](CCc1ccccc1)NC(=O)CCCCC(=O)N1CCCC(CCO2)C1 (stereo partly drawn) [Compound 16, (9S)-5^4-methyl-9-phenethyl-4-oxa-7,10-diaza-1(3,1)-piperidina-5(1,3)-benzenacyclohexadecaphane-8,11,16-trione]	< 100 nM	500 to 1000 nM	
Cc1ccc2cc1CNC(=O)[C@H](CCc1ccccc1)NC(=O)[C@@H](NC(=O)CCc1cccc(F)c1)CC(=O)N1CCCC(CCO2)C1 (stereo partly drawn) [Compound 25, 3-(3-fluorophenyl)-N-((9S,12S)-5^4-methyl-8,11,14-trioxo-9-phenethyl-4-oxa-7,10-diaza-1(3,1)-piperidina-5(1,3)-benzenacyclotetradecaphane-12-yl)propanamide]	< 100 nM	< 100 nM	
Cc1ccc2cc1CNC(=O)[C@H](CCc1ccccc1)NC(=O)[C@@H](NC(=O)c1ccccc1)CC(=O)N1CCCC(CCO2)C1 (stereo partly drawn) [Compound 26, N-((9S,12S)-5^4-methyl-8,11,14-trioxo-9-phenethyl-4-oxa-7,10-diaza-1(3,1)-piperidina-5(1,3)-benzenacyclotetradecaphane-12-yl)benzamide]	< 100 nM	< 100 nM	
Cc1ccc2cc1CNC(=O)[C@H](CCc1ccccc1)NC(=O)[C@@H](Nc1ccccn1)CC(=O)N1CCCC(CCO2)C1 (stereo partly drawn) [Compound 36, (9S,12S)-5^4-methyl-9-phenethyl-12-(pyridin-2-ylamino)-4-oxa-7,10-diaza-1(3,1)-piperidina-5(1,3)-benzenacyclotetradecaphane-8,11,14-trione]	< 100 nM	100 to 500 nM	
Cc1ccc2cc1CNC(=O)[C@H](CCc1ccccc1)NC(=O)[C@@H](NS(C)(=O)=O)CC(=O)N1CCCC(CCO2)C1 (stereo partly drawn) [Compound 37, N-((9S,12S)-5^4-methyl-8,11,14-trioxo-9-phenethyl-4-oxa-7,10-diaza-1(3,1)-piperidina-5(1,3)-benzenacyclotetradecaphane-12-yl)methanesulfonamide]	< 100 nM	< 100 nM	
CCOC(=O)N[C@H]1CC(=O)N2CCCC(CCOc3ccc(C)c(c3)CNC(=O)[C@H](CCc3ccccc3)NC1=O)C2 (stereo partly drawn) [Compound 39, ethyl ((9S,12S)-5^4-methyl-8,11,14-trioxo-9-phenethyl-4-oxa-7,10-diaza-1(3,1)-piperidina-5(1,3)-benzenacyclotetradecaphane-12-yl)carbamate]	< 100 nM		< 100 nM
Cc1ccc2cc1CNC(=O)[C@H](CCc1ccccc1)NC(=O)[C@@H](NC(=O)c1ccccn1)CC(=O)N1CCCC(CCO2)C1 (stereo partly drawn) [Compound 40, N-((9S,12S)-5^4-methyl-8,11,14-trioxo-9-phenethyl-4-oxa-7,10-diaza-1(3,1)-piperidina-5(1,3)-benzenacyclotetradecaphane-12-yl)picolinamide]	< 100 nM	< 100 nM	
Cc1ccc2cc1CNC(=O)[C@H](CCc1ccccc1)NC(=O)[C@@H](NC(=O)c1ccncc1)CC(=O)N1CCCC(CCO2)C1 (stereo partly drawn) [Compound 42, N-((9S,12S)-5^4-methyl-8,11,14-trioxo-9-phenethyl-4-oxa-7,10-diaza-1(3,1)-piperidina-5(1,3)-benzenacyclotetradecaphane-12-yl)isonicotinamide]	< 100 nM	< 100 nM	
Cc1ccc2cc1CNC(=O)[C@H](CCc1ccccc1)NC(=O)[C@@H](N1C(=O)CCC1=O)CC(=O)N1CCCC(CCO2)C1 (stereo partly drawn) [Compound 43, (9S,12S)-12-(2,5-dioxopyrrolidin-1-yl)-5^4-methyl-9-phenethyl-4-oxa-7,10-diaza-1(3,1)-piperidina-5(1,3)-benzenacyclotetradecaphane-8,11,14-trione]	< 100 nM	100 to 500 nM	
Cc1ccc2cc1CNC(=O)[C@H](CCc1ccccc1)NC(=O)[C@@H](Nc1nc3ccccc3[nH]1)CC(=O)N1CCCC(CCO2)C1 (stereo partly drawn) [Compound 45, (9S,12S)-12-((1H-benzo[d]imidazol-2-yl)amino)-5^4-methyl-9-phenethyl-4-oxa-7,10-diaza-1(3,1)-piperidina-5(1,3)-benzenacyclotetradecaphane-8,11,14-trione]	< 100 nM	100 to 500 nM	
Cc1ccc2cc1CNC(=O)C(CCc1cccnc1)NC(=O)CCC(=O)N1CCCC(CCO2)C1 (stereo not drawn) [Compound 51, 5^4-methyl-9-(2-(pyridin-3-yl)ethyl)-4-oxa-7,10-diaza-1(3,1)-piperidina-5(1,3)-benzenacyclotetradecaphane-8,11,14-trione]	< 100 nM	100 to 500 nM	
Cc1ccc2cc1CNC(=O)[C@H](CCc1ccccc1)NC(=O)[C@@H](NC(=O)c1n[nH]c3ccccc13)CC(=O)N1CCCC(CCO2)C1 (stereo partly drawn) [Compound 60, N-((9S,12S)-5^4-methyl-8,11,14-trioxo-9-phenethyl-4-oxa-7,10-diaza-1(3,1)-piperidina-5(1,3)-benzenacyclotetradecaphane-12-yl)-1H-indazole-3-carboxamide]	< 100 nM	100 to 500 nM	
COc1ccc(CC(=O)N[C@H]2CC(=O)N3CCCC(CCOc4ccc(C)c(c4)CNC(=O)[C@H](CCc4ccccc4)NC2=O)C3)cc1OC (stereo partly drawn) [Compound 63, 2-(3,4-dimethoxyphenyl)-N-((9S,12S)-5^4-methyl-8,11,14-trioxo-9-phenethyl-4-oxa-7,10-diaza-1(3,1)-piperidina-5(1,3)-benzenacyclotetradecaphane-12-yl)acetamide]	< 100 nM	< 100 nM	
Cc1ccc2cc1CNC(=O)[C@H](Cc1c[nH]c3ccccc13)NC(=O)CCC(=O)N1CCCC(CCO2)C1 (stereo partly drawn) [Compound 77, (9S)-9-((1H-indol-3-yl)methyl)-5^4-methyl-4-oxa-7,10-diaza-1(3,1)-piperidina-5(1,3)-benzenacyclotetradecaphane-8,11,14-trione]	< 100 nM	500 to 1000 nM	
Cc1ccc2cc1CNC(=O)[C@H](C)NC(=O)CCC(=O)N1CCCC(CCO2)C1 (stereo partly drawn) [Compound 78, (9S)-5^4,9-dimethyl-4-oxa-7,10-diaza-1(3,1)-piperidina-5(1,3)-benzenacyclotetradecaphane-8,11,14-trione]	100 to 500 nM	> 5000 nM	
Cc1ccc2cc1CNC(=O)[C@H](Cc1ccccc1)NC(=O)CCC(=O)N1CCCC(CCO2)C1 (stereo partly drawn) [Compound 79, (9S)-9-benzyl-5^4-methyl-4-oxa-7,10-diaza-1(3,1)-piperidina-5(1,3)-benzenacyclotetradecaphane-8,11,14-trione]	< 100 nM	1000 to 5000 nM	
Cc1ccc2cc1CNC(=O)[C@H](CCc1ccccc1)NC(=O)[C@@H](NC(=O)[C@H](C)c1ccccc1)CC(=O)N1CCCC(CCO2)C1 (stereo partly drawn) [Compound 80, (2R)-N-((9S,12S)-5^4-methyl-8,11,14-trioxo-9-phenethyl-4-oxa-7,10-diaza-1(3,1)-piperidina-5(1,3)-benzenacyclotetradecaphane-12-yl)-2-phenylpropanamide]	< 100 nM	< 100 nM	
Cc1ccc2cc1CNC(=O)[C@H](CCc1ccccc1)NC(=O)[C@@H](NC(=O)[C@@H](C)c1ccccc1)CC(=O)N1CCCC(CCO2)C1 (stereo partly drawn) [Compound 81, (2S)-N-((9S,12S)-5^4-methyl-8,11,14-trioxo-9-phenethyl-4-oxa-7,10-diaza-1(3,1)-piperidina-5(1,3)-benzenacyclotetradecaphane-12-yl)-2-phenylpropanamide]	< 100 nM	< 100 nM	
Cc1ccc2cc1CNC(=O)[C@H](CCc1ccccc1)NC(=O)[C@@H](NC(=O)C1CCCc3ccccc31)CC(=O)N1CCCC(CCO2)C1 (stereo partly drawn) [Compound 82, N-((9S,12S)-5^4-methyl-8,11,14-trioxo-9-phenethyl-4-oxa-7,10-diaza-1(3,1)-piperidina-5(1,3)-benzenacyclotetradecaphane-12-yl)-1,2,3,4-tetrahydronaphthalene-1-carboxamide]	< 100 nM	< 100 nM	
COc1ccc(CC(=O)N[C@H]2CC(=O)N3CCCC(CCOc4ccc(C)c(c4)CNC(=O)[C@H](CCc4ccccc4)NC2=O)C3)cc1 (stereo partly drawn) [Compound 83, 2-(4-methoxyphenyl)-N-((9S,12S)-5^4-methyl-8,11,14-trioxo-9-phenethyl-4-oxa-7,10-diaza-1(3,1)-piperidina-5(1,3)-benzenacyclotetradecaphane-12-yl)acetamide]	< 100 nM	< 100 nM	
COc1ccccc1CC(=O)N[C@H]1CC(=O)N2CCCC(CCOc3ccc(C)c(c3)CNC(=O)[C@H](CCc3ccccc3)NC1=O)C2 (stereo partly drawn) [Compound 84, 2-(2-methoxyphenyl)-N-((9S,12S)-5^4-methyl-8,11,14-trioxo-9-phenethyl-4-oxa-7,10-diaza-1(3,1)-piperidina-5(1,3)-benzenacyclotetradecaphane-12-yl)acetamide]	< 100 nM	< 100 nM	
COc1cccc(CC(=O)N[C@H]2CC(=O)N3CCCC(CCOc4ccc(C)c(c4)CNC(=O)[C@H](CCc4ccccc4)NC2=O)C3)c1 (stereo partly drawn) [Compound 85, 2-(3-methoxyphenyl)-N-((9S,12S)-5^4-methyl-8,11,14-trioxo-9-phenethyl-4-oxa-7,10-diaza-1(3,1)-piperidina-5(1,3)-benzenacyclotetradecaphane-12-yl)acetamide]	< 100 nM	< 100 nM	
